Reference: patent publication US20250263437A1, “POLYPEPTIDE FOR REPAIRING SKIN WOUND OR MUCOSAL INJURY, AND APPLICATION THEREOF” (Sichuan Gooddoctor Panxi Pharmaceutical Co., Ltd., priority 2021, published 2025)
Entries after “also recorded” stand apart in the source; their conditions may differ. Where no end group is shown, it is not given here.

Experiments:
HaCaT cells = experiment: Proliferation of HaCaT cells (CCK8); assay type: cell-based, human; settings: 0.2-0.8 μg/mL; 24 h, 48 h and 72 h; 1% serum
Method: Experimental method: Immortalized human keratinocytes (HaCaT cells) was adjusted to a concentration of 1.0×10^5 to 5.0×10^5/mL for passaging, and they were cultured at 37° C. and 5% CO2 for 24-36 h for biological activity detection. The cells were digested with 0.25% trypsin for 5 min, 1640 whole blood culture medium, the volume of which was not less than 1 time of the volume of the trypsin, was added to stop digestion, a cell suspension was collected, centrifuged at 1000 RPM for 3 min, the supernatant was discarded, 2 mL of 1640 whole blood culture medium was added to suspend the cells, 20 μL of the cell suspension was taken and stained with AOPI, the concentration of cells in the suspension was then detected by a cell counter, the suspension was prepared to a concentration of 5×10^4/mL with 1640 culture medium containing serum at a concentration of 10% and inoculated into a 96-well cell culture plate, with 100 μL per well, i.e., 5000 cells/well, and the plate was cultured at 37° C. and 5% CO2 overnight.
After 24 h, the original culture medium was discarded, and 100 μL of polypeptide compound solutions with different concentrations prepared with 1640 culture medium containing serum at a concentration of 1% were added, such that the final concentrations of the polypeptide compounds to be tested were 0.2, 0.4 and 0.8 ug/mL, respectively. In addition, an EGF control group was prepared by adding 100 μL of a recombinant human epidermal growth factor (EGF) solution prepared with 1640 culture medium containing serum at a concentration of 1%, with the final concentration being 100 ng/ml. In the model control group, an equal volume of 1640 culture medium containing serum at a concentration of 1% was added. After culturing at 37° C. and 5% CO2 for 24 h, 48 h and 72 h, the proliferation of the HaCaT cell line was detected by means of CCK8 kit.

[1] = system: ethanol-induced gastric ulcer model in mice; experiment: Anti-ulcer effect on ethanol-induced gastric ulcer model in mice; assay type: in vivo; settings: single administration; ulcer inhibition rate of test compound / ulcer inhibition rate of Compound 1
Method: Experimental animals: Six-week old C57BL/6JGPt male mice, weighing about 20 g/mouse, were selected, with 10 mice in each group, from GemPharmatech (Chengdu) Co., Ltd., animal license number: SCXK (Chuan) 2020-034. After the experimental animals were divided into groups, they were dosed according to Table 5 one day before the experiment. Among the groups, the model group was given 200 μl of pure water, and the other dose groups were given 200 μl of drug solution. After that, all the animals were fasted for 24 h with free access to water. The next day, 1 h after administration, the mice in each group were given 9 μl/g of absolute ethanol by oral gavage for modeling. After 1 h, the animals were sacrificed by cervical dislocation, the gastric cardia was ligated, the pylorus was occluded, and the whole stomach was removed. 1 mL of 1% formaldehyde solution was injected into the gastric lumen via the glandular stomach, the cardia was ligated, and the stomach was taken out and immediately immersed in 1% formaldehyde solution. After soaking for 30 min, the stomach tissue was taken out and cut open along the greater curvature. The content of the stomach was rinsed off with normal saline, the injury of the gastric mucosa in the mice were observed and measured after being laid flat, and the ulcer index and ulcer inhibition rate were calculated; panoramic photos of the stomach were taken; and finally, the gastric tissue sample was immersed in formalin and fixed. Calculation method for ulcer index: If the length of cord-like injury was greater than 1 mm, the length thereof was measured, with 1 point per millimeter; if the width thereof was greater than 1 mm, the score thereof was doubled according to the number of millimeters of the width; and if the length was less than 1 mm, a score of 0.5 was given, and the scores were added up to obtain the ulcer index of the animal. Method of data statistics: the ulcer index was expressed as mean±standard deviation; the ulcer inhibition rate was calculated by using the median value and mean value of the ulcer index in each dosage group and simulation group; and the data were statistically analyzed by means of Excel, and the difference data of the gastric ulcer index were statistically analyzed by means of independent sample T test.

FGFR1 = FGFR1 (Homo sapiens, UniProt P11362); experiment: FGFR receptor binding assay: ultrafiltration/mass spectrometry affinity screening to FGFR1 protein target; settings: ratio of lower-layer to upper-layer compound MS signal intensity; the greater the ratio, the stronger the affinity
Method: The affinity of the polypeptide compound prepared by the present invention to FGFR1 was tested by using a control FGFR1 allosteric inhibitor (product number SSR128129E from Sigma) as a positive compound control.
Screening for the affinity to FGFR1 was as follows: FGFR1 solutions with an appropriate concentration were taken, the positive compound SSR128129E (Sigma) at an appropriate concentration and sample solutions of the inventive polypeptide compounds, as freeze-dried powders, dissolved in protein buffers were then respectively added. After incubation at room temperature for 50 min, ultrafiltration and screening were carried out to obtain various treated solutions. An appropriate volume of acetonitrile was added to each treated solution to precipitate a protein, the solution was then centrifuged, and the supernatant was taken and analyzed by mass spectrometry.
Affinity screening conditions: One-dimensional liquid-phase conditions were: chromatographic column; PolyLC chromatographic column, mobile phase A: KH2PO4, NaCl, pH 7.5, mobile phase B: acetonitrile, column temperature: 8° C., flow rate: 1 mL/min, and injection volume: appropriate; and two-dimensional liquid-phase conditions were: chromatographic column: BONUS RRHD, mobile phase A: 0.1% formic acid aqueous solution, mobile phase B: 0.1% formic acid in acetonitrile, column temperature: 60° C., flow rate: 0.3 mL/min, and injection volume: 40 uL. Gradient elution was used, i.e., 98% A (0-1 min), 98-10% A (1-6 min), 10% A (6-7.5 min), 10-98% A (7.5-8 min), and 98% A (8-9.5 min). Mass spectrometry conditions: Agilent 6530 Q-Tof, ESI ion source, voltage 3.5 KV, mass-to-charge ratio scanning range m/z=200-3000, acquisition mode: positive ion scanning, ion source temperature: 350° C., solvent removal temperature: 300° C., and nitrogen flow rate: 8 L/min.

HMEC-1 cells = experiment: Proliferation of HMEC-1 cells (CCK-8); assay type: cell-based, Human; settings: 0.05, 0.2 and 0.8 ug/mL; 48 h; 0% serum
Method: Human microvascular endothelial cells (HMEC-1 cells) were cultured in 10% serum culture medium at 37° C. and 5% CO2, the medium was replaced every 1-2 d, and the cell concentration was controlled to be 4×10^6 cells/mL for passage. Cells were collected, prepared to […] with complete culture medium, inoculated into a 96-well cell culture plate, with 100 μL per well, i.e., 5000 cells/well, and cultured at 37° C. and 5% CO2 until the cells adhered to the wall. The polypeptide compound of the present invention was prepared to test concentrations (0.05 ug/mL, 0.2 ug/mL, and 0.8 ug/mL) with 0% serum culture medium as experimental groups, a positive drug (300 ng/ml) was prepared in the same way and added as a positive control, and an equal amount of 0% serum drug-free culture medium was added to the control group. They were added to 5 duplicate wells, and the resultants were incubated at 37° C. and 5% CO2 for 48 h. Detection of the proliferation of cells using CCK-8: the old culture medium was removed, and a serum-free medium containing 10% CCK-8 was added to each well. After incubation in an incubator for 2 h, the absorbance at 450 nm was measured by a microplate reader.

RSC96 cells = experiment: Proliferation of RSC96 cells (CCK-8); assay type: cell-based; settings: 0.2, 0.4 and 0.8 ug/ml; 48 h; 0% serum
Method: Glial cells (RSC96 cells) were adjusted to a concentration of 1.0×10^5 to 5.0×10^5/mL for passaging and cultured at 37° C. and 5% CO2 for 24-36 h for biological activity detection. The cells were digested by trypsin, collected, prepared to a concentration of 5×10^4/mL with a serum-free medium, inoculated into a 96-well cell culture plate, with 100 μL per well, i.e., 5000 cells/well, and cultured overnight at 37° C. and 5% CO2. The polypeptide compound of the present invention was prepared to test concentrations (0.2 ug/ml, 0.4 ug/ml, and 0.8 ug/ml) with 0% serum culture medium as experimental groups, and an equal amount of 0% serum drug-free culture medium was added to the control group. They were added to 4 duplicate wells, and the resultants were incubated at 37° C. and 5% CO2 for 48 h. Detection of the proliferation of cells using CCK-8: the old culture medium was removed, and a serum-free medium containing 10% CCK-8 was added to each well. After incubation in an incubator for 2 h, the absorbance at 450 nm was measured by a microplate reader.

Sequence of FGFR1 (P11362 22-822, species assumed): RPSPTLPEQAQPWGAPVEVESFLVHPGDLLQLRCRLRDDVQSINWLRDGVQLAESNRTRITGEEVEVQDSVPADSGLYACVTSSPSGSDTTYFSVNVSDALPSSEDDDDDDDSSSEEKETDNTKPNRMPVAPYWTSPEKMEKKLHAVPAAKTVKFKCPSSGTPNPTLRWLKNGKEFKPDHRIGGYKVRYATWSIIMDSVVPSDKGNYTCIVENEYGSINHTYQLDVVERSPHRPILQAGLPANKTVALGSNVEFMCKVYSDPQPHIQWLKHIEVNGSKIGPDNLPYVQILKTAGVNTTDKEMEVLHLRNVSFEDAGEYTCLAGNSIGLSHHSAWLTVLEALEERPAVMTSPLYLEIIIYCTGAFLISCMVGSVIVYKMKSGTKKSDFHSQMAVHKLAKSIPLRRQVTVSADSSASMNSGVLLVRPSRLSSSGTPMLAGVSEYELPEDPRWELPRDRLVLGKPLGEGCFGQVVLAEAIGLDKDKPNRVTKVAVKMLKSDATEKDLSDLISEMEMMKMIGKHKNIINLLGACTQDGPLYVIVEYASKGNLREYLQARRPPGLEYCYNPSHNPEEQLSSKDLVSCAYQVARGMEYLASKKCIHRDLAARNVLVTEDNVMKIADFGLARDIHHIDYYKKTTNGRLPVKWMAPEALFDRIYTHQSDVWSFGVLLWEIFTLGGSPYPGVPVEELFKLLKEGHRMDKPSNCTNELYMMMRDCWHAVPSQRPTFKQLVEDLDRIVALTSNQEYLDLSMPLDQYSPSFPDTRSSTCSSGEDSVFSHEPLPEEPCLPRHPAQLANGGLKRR

Row | Cb/Ct range (FGFR1) | Sequence | effect on proliferation of HaCaT cells (HaCaT cells) | Anti-ulcer activity (mean relative ulcer inhibition rate) [1] | effect on proliferation of HMEC-1 cells (HMEC-1 cells) | effect on proliferation of RSC96 cells (RSC96 cells)
1 | 1.0-3 | VDAAVIEKIE [Compound 71] | proliferation-promoting effect | 0.77 | proliferation-promoting effect | –
2 | 1.0-3 | VDAAVLMLRT [Compound 73] | proliferation-promoting effect | 1.46 | proliferation-promoting effect | proliferation-promoting effect
3 | 1.0-3 | KFYSQSTASSSYAYPSHFGPAGFSGSHS [Compound 70] | proliferation-promoting effect | 0.39 | – | inhibitory effect
4 | 1.0-3 | AARLADELRAE [Compound 65] | proliferation-promoting effect | 1.29 | – | proliferation-promoting effect
5 | 1.0-3 | FDALKQQFQAFQLE [Compound 62] | – | 0.89 | – | –

Second part, the sequence before the results:

Row | Sequence | Cb/Ct range (FGFR1) | effect on proliferation of HaCaT cells (HaCaT cells) | Anti-ulcer activity (mean relative ulcer inhibition rate) [1] | effect on proliferation of HMEC-1 cells (HMEC-1 cells) | effect on proliferation of RSC96 cells (RSC96 cells)
6 | HCLAGLKKDLEDLE [Compound 63] | 1.0-3 | proliferation-promoting effects | 1.99 | – | proliferation-promoting effect
7 | AAVLEKLE [Compound 69] | 1.0-3 | proliferation-promoting effect | 1.25 | – | –
8 | EINQLELIKQASI [Compound 64] | 1.0-3 | proliferation-promoting effect | 0.61 | proliferation-promoting effect | significant proliferation promoting effects
9 | VDAAMVLLTR [Compound 72] | 1.0-3 | proliferation-promoting effect | 1.65 | significant proliferation promoting effects; also recorded: proliferation-promoting effect | –
10 | ETLQRKNKE [Compound 66] | 1.0-3 | proliferation-promoting effect | 0.52 | – | significant proliferation promoting effects
